Measurements reported in US8729074B2, “Inhibitors of PI3 kinase” (Amgen Inc., priority 2009, dated 2014).

Tests used:
[1] = target: PI3Kα (Homo sapiens (Human), UniProt P42336); assay: In vitro PI3 kinase enzyme assay (PI3K ATPLoss); type: biochemical; conditions: average if run more than once
Experimental: Recombinant Expression of PI3K Enzymes
Full length p110 subunits of PI3K α, β and δ, N-terminally labeled with polyHis tag, can be co-expressed with p85 with Baculo virus expression vectors in sf9 insect cells. P110/p85 heterodimers can be purified by sequential Ni-NTA, Q-HP, Superdex-100 chromatography. Purified α, β and δ isozymes can be stored at −20° C. in 20 mM Tris, pH 8, 0.2M NaCl, 50% glycerol, 5 mM DTT, 2 mM Na cholate. […] The γ isozyme can be purified by sequential Ni-NTA, Superdex-200, Q-HP chromatography. The γ isozyme can be stored frozen at −80° C. in NaH2PO4, pH 8, 0.2M NaCl, 1% ethylene glycol, 2 mM β-mercaptoethanol.
In Vitro PI3 Kinase Enzyme Assays (PI3K ATPLoss)
PI3K enzyme assays (alpha, beta, delta and gamma) can be performed in 25 μL with the above final concentrations of components in white polyproplyene plates. Phosphatidyl inositol phosphoacceptor, PtdIns(4,5)P2 (e.g., P4508) can be obtained from Echelon Biosciences, Salt Lake City, Utah. […] Test compounds can be dissolved in DMSO and diluted with three-fold serial dilutions. The compound in DMSO (1 μL) may be added per test well, and the inhibition relative to reactions containing no compound, with and without enzyme can be determined. After assay incubation at RT, the reaction can be stopped and residual ATP can be determined by addition of an equal volume of a commercial ATP bioluminescence kit (Perkin Elmer EasyLite, Perkin Elmer, Waltham, Mass.) according to the manufacturer's instructions, and detected using an Analyst GT luminometer.

[2] = system: phosphorylation of Akt at Serine 473 in U87 MG cells; assay: pAkt AlphaScreen (U87 cell); type: cell-based; conditions: Homo sapiens, U-87 MG, 2 h; pAkt Ser473, U87 MG cells, compound two hours; average if run more than once
Experimental: pAkt AlphaScreen (U87 Cell)
The pAkt AlphaScreen® assay (PerkinElmer, Waltham, Mass.) determines whether there is phosphorylation of Akt at Serine 473 by recruitment of a phosphospecific antibody. This assay was performed using U87 MG cells. The U87 growth media consists of MEM (Gibco, Carlsbad, Calif.) supplemented with 10% FBS (Gibco), 1× Non-Essential Amino Acids (Gibco) and 1× Penicillin/Streptomycin/Glutamine (Gibco). The cells were maintained weekly using 0.05% Trypsin (Gibco) and replated in 150 mm TC—Treated Culture Dishes (Corning, Corning, N.Y.).
The first day of the assay, the adherent cells were trypsinized, media was added to the loose cells and cells were mixed to a homogenous mixture. 0.5 ml of the homogenous mixture was counted on the Beckman Coulter® Vi-CELL™ XR (Fullerton, Calif.). 50 frames of cells were counted and the number of viable cells was determined. The cells were then diluted to 0.25 million cells per ml, and centrifuged at 200 rcf for 5 minutes. The media was removed and the cells were reconstituted in fresh media for plating. The cells were plated at 20 μl per well on the PerkinElmer® Flexprop PLUS in Low Volume 384 Well White Tissue Culture Plates (Corning) with a final cell density of 5K cells per well. The plates were incubated overnight at 37° Celsius, 5% CO2.
On the second day, the compound plates were prepared, the cells were treated with compound and the pAkt reaction mix was added to the cell lysate. 384 well compound plates were prepared containing 1 μl of compound per well starting at 5 mM and diluted 1:2 across the row, resulting in a 22 well serial dilution. 39 μl of growth media was added to the compound plate in rows 1-22 using the PerkinElmer® Flexprop PLUS resulting in a DMSO concentration of 2.5%. The cell plates and diluted compound plates were put onto the VELOCITY11™ VPREP™ 384 ST where the compound plate was mixed and 5 μl of serially diluted compound or controls was added to the cell plate. The final concentration of the compounds was 25 μM serially diluted to 11.9 pM in 0.5% DMSO. The cell plates were then incubated with compound for two hours at 37° Celsius, 5% CO2. After two hours, the media in the cell plates was aspirated using the BioTek® ELx405HT plate washer (Winooski, Vt.) removing the majority of media and compound without disturbing the adherent U87 cells. The following assay reagents are components of the SureFire® Akt (Ser 473) Phosphorylation 50K Point Kit (TGR BioSciences, Adelaide, Australia) and an IgG Detection Kit (PerkinElmer, Waltham, Mass.). 5 μl of 1× Lysis Buffer was added to each well using the PerkinElmer® Flexprop PLUS. The plates were then incubated at room temperature on a shaker for ten minutes. The AlphaScreen® reaction was prepared under low light conditions (subdued or green light) including p-Akt (Ser 473) Reaction Buffer, Dilution Buffer, Activation Buffer, Acceptor Beads and Donor Beads at a ratio of 40:20:10:1:1 respectively. The AlphaScreen® reaction was added to the cell lysate at 6 μl per well using the PerkinElmer® Flexprop PLUS. The plates were placed in a humid environment to reduce edge effects and incubated overnight at room temperature with restricted air flow in the dark.
On the final day of the experiment, the plates were read on the PerkinElmer® EnVision™ 2103 Multilable Reader using the standard AlphaScreen® readout. The POC is calculated and the data is analyzed to report the IC50 IP for pAkt at Serine 473.
Activity data for the compounds tested in the PI3K cell based Akt assay is provided in Table 1 under the column heading U87

Chain of PI3Kα (P42336 whole entry): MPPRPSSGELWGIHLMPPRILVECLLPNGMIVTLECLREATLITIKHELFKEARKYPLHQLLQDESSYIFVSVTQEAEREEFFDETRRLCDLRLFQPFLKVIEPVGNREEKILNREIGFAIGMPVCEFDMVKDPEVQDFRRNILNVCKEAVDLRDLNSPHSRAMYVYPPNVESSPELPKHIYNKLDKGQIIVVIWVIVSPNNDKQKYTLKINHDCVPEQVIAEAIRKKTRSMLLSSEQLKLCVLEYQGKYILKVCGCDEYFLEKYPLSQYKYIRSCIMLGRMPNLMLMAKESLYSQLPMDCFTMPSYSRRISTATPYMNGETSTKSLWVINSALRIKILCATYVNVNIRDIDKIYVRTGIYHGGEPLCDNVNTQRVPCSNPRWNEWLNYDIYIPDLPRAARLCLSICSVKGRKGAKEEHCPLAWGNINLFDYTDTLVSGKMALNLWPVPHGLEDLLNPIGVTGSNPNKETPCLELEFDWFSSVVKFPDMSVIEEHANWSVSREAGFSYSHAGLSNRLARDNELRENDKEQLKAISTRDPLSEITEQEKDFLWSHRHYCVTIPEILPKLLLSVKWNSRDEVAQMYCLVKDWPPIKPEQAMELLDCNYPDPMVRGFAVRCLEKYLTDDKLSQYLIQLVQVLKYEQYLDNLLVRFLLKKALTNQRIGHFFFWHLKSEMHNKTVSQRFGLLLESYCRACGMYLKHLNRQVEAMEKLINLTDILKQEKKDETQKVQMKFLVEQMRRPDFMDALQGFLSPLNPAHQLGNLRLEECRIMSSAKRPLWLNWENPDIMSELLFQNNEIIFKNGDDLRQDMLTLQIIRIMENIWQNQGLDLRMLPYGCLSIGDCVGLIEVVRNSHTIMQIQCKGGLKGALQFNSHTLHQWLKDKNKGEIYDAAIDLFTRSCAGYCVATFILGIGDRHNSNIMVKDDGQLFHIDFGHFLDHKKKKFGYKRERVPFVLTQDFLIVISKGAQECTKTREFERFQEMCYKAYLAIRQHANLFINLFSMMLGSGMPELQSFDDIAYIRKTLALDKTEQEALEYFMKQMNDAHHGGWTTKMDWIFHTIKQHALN
Chain of PI3Kα (P27986 whole entry partner): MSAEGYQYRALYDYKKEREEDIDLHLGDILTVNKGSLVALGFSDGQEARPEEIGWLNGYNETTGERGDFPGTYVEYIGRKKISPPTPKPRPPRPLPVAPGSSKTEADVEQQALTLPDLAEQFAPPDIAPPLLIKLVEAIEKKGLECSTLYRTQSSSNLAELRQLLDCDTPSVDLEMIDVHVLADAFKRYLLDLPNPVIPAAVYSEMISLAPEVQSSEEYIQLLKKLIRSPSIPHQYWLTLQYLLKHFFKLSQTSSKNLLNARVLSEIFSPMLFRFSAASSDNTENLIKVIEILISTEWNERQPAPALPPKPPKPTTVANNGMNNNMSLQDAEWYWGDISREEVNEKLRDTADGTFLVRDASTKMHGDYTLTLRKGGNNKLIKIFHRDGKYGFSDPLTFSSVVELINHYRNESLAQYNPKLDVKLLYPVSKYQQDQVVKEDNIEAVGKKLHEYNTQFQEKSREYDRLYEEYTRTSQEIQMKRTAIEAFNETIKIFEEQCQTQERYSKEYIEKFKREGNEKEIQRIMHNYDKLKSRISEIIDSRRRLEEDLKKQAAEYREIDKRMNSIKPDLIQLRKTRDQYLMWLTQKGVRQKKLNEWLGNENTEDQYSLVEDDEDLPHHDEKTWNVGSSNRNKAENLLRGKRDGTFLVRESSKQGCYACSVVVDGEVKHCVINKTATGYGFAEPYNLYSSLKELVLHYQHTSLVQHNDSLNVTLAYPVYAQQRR

Compound	IC50 [1]	IC50 [2]
O=S(=O)(Nc1cc(-c2cnc3ccccn23)cnc1Cl)c1ccc(F)cc1 [Example 3, N-(2-Chloro-5-imidazo[1,2-a]pyridin-3-yl-3-pyridinyl)-4-fluorobenzenesulfonamide]	30 nM	
Cc1ccn2c(-c3cnc(Cl)c(NS(=O)(=O)c4ccc(F)cc4)c3)cnc2c1 [Example 4, N-(2-Chloro-5-(7-methylimidazo[1,2-a]pyridin-3-yl)-3-pyridinyl)-4-fluorobenzenesulfonamide]	13 nM	
Cc1nc2ccc(Br)cn2c1-c1cnc(Cl)c(NS(=O)(=O)c2ccc(F)cc2)c1 [Example 5, N-(5-(6-Bromo-2-methylimidazo[1,2-a]pyridin-3-yl)-2-chloro-3-pyridinyl)-4-fluorobenzenesulfonamide]	16 nM	1220 nM
O=S(=O)(Nc1cc(-c2cnc3ccc(Br)cn23)cnc1Cl)c1ccc(F)cc1 [Example 6, N-(5-(6-Bromoimidazo[1,2-a]pyridin-3-yl)-2-chloro-3-pyridinyl)-4-fluorobenzenesulfonamide]	14 nM	208 nM
O=S(=O)(Nc1cc(-c2cnc3ccc(-c4ccncc4)cn23)cnc1Cl)c1ccc(F)cc1 [Example 7, N-(2-Chloro-5-(6-(4-pyridinyl)imidazo[1,2-a]pyridin-3-yl)-3-pyridinyl)-4-fluorobenzenesulfonamide]	5 nM	42 nM
O=S(=O)(Nc1cc(-c2cnc3ccc(-c4cccnc4)cn23)cnc1Cl)c1ccc(F)cc1 [Example 8, N-(2-Chloro-5-(6-(3-pyridinyl)imidazo[1,2-a]pyridin-3-yl)-3-pyridinyl)-4-fluorobenzenesulfonamide]	4 nM	83 nM
O=S(=O)(Nc1cc(-c2cnc3ccc(N4CCOCC4)cn23)cnc1Cl)c1ccc(F)cc1 [Example 9, N-(2-Chloro-5-(6-(4-morpholinyl)imidazo[1,2-a]pyridin-3-yl)-3-pyridinyl)-4-fluorobenzenesulfonamide]	6 nM	76 nM
COc1cc(-c2cnc3ccccn23)cnc1OC [Example 10, 3-(5,6-Dimethoxy-3-pyridinyl)imidazo[1,2-a]pyridine]	15700 nM	> 25000 nM
COc1cc(-c2cnc3ccc(Br)cn23)cnc1OC [Example 11, 6-Bromo-3-(5,6-dimethoxy-3-pyridinyl)imidazo[1,2-a]pyridine]	1500 nM	4980 nM
COc1cc(-c2cnc3ccc(-c4ccncc4)cn23)cnc1OC [Example 12, 3-(5,6-Dimethoxy-3-pyridinyl)-6-(4-pyridinyl)imidazo[1,2-a]pyridine]	861 nM	2190 nM
COc1cc(-c2cnc3ccc(N4CCOC4=O)cn23)cnc1OC [Example 13, 3-(3-(5,6-Dimethoxy-3-pyridinyl)imidazo[1,2-a]pyridin-6-yl)-1,3-oxazolidin-2-one]	4670 nM	> 25000 nM
COc1cc(-c2cnc3ccc(N4CCOCC4)cn23)cnc1OC [Example 16, 3-(5,6-Dimethoxy-3-pyridinyl)-6-(4-morpholinyl)imidazo[1,2-a]pyridine]		3990 nM
CN(C)S(=O)(=O)Nc1cc(-c2cnc3ccc(-c4ccncc4)cn23)cnc1Cl [Example 18, N-(2-Chloro-5-(6-(pyridin-4-yl)imidazo[1,2-a]pyridin-3-yl)pyridin-3-yl)dimethylaminosulfonamide]		7 nM
CN(C)S(=O)(=O)Nc1cc(-c2cnc3ccc(-c4ccnc(C(F)(F)F)c4)cn23)cnc1Cl [Example 19, N-(2-Chloro-5-(6-(2-(trifluoromethyl)pyridin-4-yl)imidazo[1,2-a]pyridin-3-yl)pyridin-3-yl)dimethylaminosulfonamid]		9 nM
CS(=O)(=O)Nc1cc(-c2cnc3cc(-c4cccnc4)ccn23)cnc1Cl [Example 20, N-(2-Chloro-5-(7-(pyridin-3-yl)imidazo[1,2-a]pyridin-3-yl)pyridin-3-yl)methanesulfonamide]		32 nM
CN(C)S(=O)(=O)Nc1cc(-c2cnc3cc(-c4ccncc4)ccn23)cnc1Cl [Example 21, N′-(2-Chloro-5-(7-(4-pyridinyl)imidazo[1,2-a]pyridin-3-yl)-3-pyridinyl)-N,N-dimethylsulfamide]		281 nM
CN(C)S(=O)(=O)Nc1cc(-c2cnc3cc(-c4cccnc4)ccn23)cnc1Cl [Example 22, N′-(2-Chloro-5-(7-(3-pyridinyl)imidazo[1,2-a]pyridin-3-yl)-3-pyridinyl)-N,N-dimethylsulfamide]		168 nM
Cc1cc2ncc(-c3cnc(Cl)c(NS(=O)(=O)N(C)C)c3)n2cc1-c1ccncc1 [Example 23, N′-(2-Chloro-5-(7-methyl-6-(4-pyridinyl)imidazo[1,2-a]pyridin-3-yl)-3-pyridinyl)-N,N-dimethylsulfamide]		8 nM
O=S(=O)(Nc1cc(-c2cnc3ccc(Cl)nn23)cnc1Cl)c1ccc(F)cc1 [Example 25, N-(2-Chloro-5-(6-chloroimidazo[1,2-b]pyridazin-3-yl)pyridin-3-yl)-4-fluorobenzenesulfonamide]	47 nM	
